Results reported in patent US20120183660A1, “ISOMANNIDE DERIVATIVES AND THEIR USE AS TASTANTS” (Senomyx, Inc., priority 2009, published 2012).

Test system: un-induced I-17 cells
Assay: FLIPR assay on un-induced I-17 cells (no mifepristone induction of receptor expression)
Format: cell-based
Settings: compounds at 10 μM—or three times the maximum stimulation used in the dose-response analysis
Protocol: In order to determine the dependency of hT1R1/hT1R3 for the cell response to different stimuli, selected compounds were subjected to a similar analysis on I-17 cells that had not been induced for receptor expression with mifepristone (designated as un-induced I-17 cells). […] Compounds were presented to un-induced umami cells at […]—or three times the maximum stimulation used in the dose-response analysis.

N[C@@H](CCC(=O)O)C(=O)[O-].[Na+] [monosodium glutamate]
functional response in the FLIPR assay on un-induced umami cells: do not show any functional response
